Results: PubChem BioAssay (NCI)
“And” between values parts separate entries of the source, which are not always exact repeats. Equal entries are not always repeated.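 Protocol summary: plate cells (96-well), add compound at 5 concentrations, incubate 48 h, interpolate endpoints linearly. GI50 marks 50% less growth. Definition used: TGI = concentration required for complete inhibition of growth.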 Where a SMILES comes first, the peptide text is derived from it. [ ]: non-standard residue; d: D form. Phe(F5) = N[CH](Cc1c(F)c(F)c(F)c(F)c1F)C(=O)O

What was measured:
Assay in all cases: NCI tumour cell line growth inhibition, 48 h
[1] = system: OVCAR-3 ovarian
[2] = system: HT29 colon
[3] = system: A498 renal
[4] = system: K-562 leukemia
[5] = system: CCRF-CEM leukemia
[6] = system: SNB-75 CNS
[7] = system: NCI-H23 lung
[8] = system: DU-145 prostate
[9] = system: CAKI-1 renal
[10] = system: SNB-19 CNS

Structure (SMILES)	GI50 [1]	TGI [1]	GI50 [2]	TGI [2]	GI50 [3]	TGI [3]	GI50 [4]	TGI [4]	GI50 [5]	TGI [5]	GI50 [6]	TGI [6]	GI50 [7]	TGI [7]	GI50 [8]	TGI [8]	GI50 [9]	TGI [9]	GI50 [10]	TGI [10]
CCCN(Cc1ccc(F)cc1)c1ccc(CO)c(Cl)c1	0.662 µM	4.02 µM	4.78 µM	16.4 µM	0.0236 µM	0.102 µM	2.22 µM	15.2 µM	12.2 µM	30.5 µM	10.6 µM	22.7 µM	4.24 µM	20.2 µM	13.3 µM	26.5 µM	1.47 µM	13.6 µM	12.7 µM	26.8 µM
CC[C@H](Nc1nc(N)nc(C)c1C#N)c1nc2cccc(CN(C)c3ncc(C(=O)NO)cn3)c2c(=O)n1-c1ccccc1	0.761 µM	2.28 µM	0.8 µM	> 17.6 µM	0.295 µM	1.13 µM	0.39 µM	> 50 µM	0.228 µM	> 50 µM	0.244 µM	1.82 µM	1.14 µM	5.32 µM	1.11 µM	> 16.7 µM	2.61 µM	6.56 µM	0.827 µM	6.4 µM
C=C(C)[C@@H]1CC[C@]2(C(=O)NCCCN)CC[C@]3(C)[C@H](CC[C@@H]4[C@@]5(C)CC[C@H](O)C(C)(C)[C@@H]5CC[C@]43C)[C@@H]12	15.7 µM	39.5 µM	6.95 µM	38.4 µM	22.9 µM	49.2 µM	9.84 µM	31.3 µM	22.1 µM	> 100 µM	32.1 µM	> 100 µM	22.6 µM	87.1 µM	17.5 µM	37.1 µM	21.9 µM	> 100 µM	24.7 µM	84.5 µM
COc1cccc(C2=C(c3cn(C)c4ccccc34)C(=O)NC2=O)c1	9.05 µM	> 25 µM	7.96 µM	> 25 µM	3.09 µM	> 25 µM	7.93 µM	> 25 µM	9.01 µM	> 25 µM	1.32 µM	> 25 µM	13.9 µM	> 25 µM	> 25 µM	> 25 µM	7.9 µM	> 25 µM	> 25 µM	> 25 µM
CCn1c(-c2nonc2N)nc2cncc(C(=O)N3CCNCC3)c21	> 25 µM	> 25 µM	> 25 µM	> 25 µM	> 25 µM	> 25 µM	> 25 µM	> 25 µM	> 25 µM	> 25 µM	> 25 µM	> 25 µM	> 25 µM	> 25 µM	> 25 µM	> 25 µM	> 25 µM	> 25 µM	> 25 µM	> 25 µM
O=C(Nc1cccc(Cl)c1)Nc1ncc(CCNc2ncnc3ccsc23)s1	4.06 µM and 1.06 µM	17.1 µM and > 10 µM	3.33 µM and 3.03 µM	23.1 µM and > 10 µM	2.51 µM and 1.17 µM	17.9 µM and > 10 µM	3.54 µM and 2.4 µM	> 100 µM	< 0.01 µM and 0.00391 µM	> 100 µM	1.62 µM and 1.02 µM	19.5 µM and > 10 µM	2.08 µM and 2.49 µM	20.1 µM and > 10 µM	4.59 µM and 2.74 µM	20.5 µM and > 10 µM	1.12 µM and 1.34 µM	22.8 µM and > 10 µM	11.2 µM and > 10 µM	26.9 µM and > 10 µM
Fc1ccc2[nH]cc(Cc3c[nH]c4ccc(F)cc34)c2c1	19.5 µM	52.8 µM	31.4 µM	> 100 µM	15 µM	31.8 µM	32.4 µM	> 100 µM	16.7 µM	64.5 µM	29 µM	85.6 µM	22.2 µM	53.5 µM	27.8 µM	85.7 µM	12.1 µM	34.3 µM	20.2 µM	51.9 µM
O=c1cc(CNc2cc(F)cc(F)c2)c2ccc(I)cc2[nH]1	0.336 µM	39.6 µM	0.361 µM	> 100 µM	0.279 µM	–	0.203 µM	> 100 µM	0.498 µM	> 57.7 µM	0.199 µM	3.45 µM	6.36 µM	> 100 µM	1.69 µM	> 100 µM	0.421 µM	> 100 µM	0.637 µM	> 100 µM
COc1cc2nc(Cl)nc(Nc3cccc(C(=O)/C=C/c4ccccc4)c3)c2cc1OC	3.75 µM	31.3 µM	4.39 µM	> 100 µM	> 25 µM	> 66.5 µM	1.74 µM	> 100 µM	2.45 µM	> 100 µM	2.06 µM	8.61 µM	6.63 µM	> 100 µM	> 48.8 µM	> 100 µM	4.17 µM	35.4 µM	2.96 µM	> 31.8 µM
C=C(C)[C@@H]1CC=C(CO)CC1	> 10 µM	> 10 µM and 736 µM	> 10 µM	> 10 µM and 702 µM	> 10 µM	> 10 µM and 1170 µM	> 10 µM	> 10 µM and 1140 µM	> 10 µM	> 10 µM and 440 µM	> 10 µM	> 10 µM and 374 µM	> 10 µM	> 10 µM and 1120 µM	–	> 10 µM	–	> 10 µM	> 10 µM	> 10 µM and 1010 µM
O=C1C(Cl)=C(N/N=c2/[nH][nH]/c(=N/NC3=C(Cl)C(=O)c4ccccc4C3=O)c3ccccc23)C(=O)c2ccccc21	15.6 µM	36.4 µM	24.9 µM	53.6 µM	11.5 µM	24 µM	3.23 µM	13.9 µM	10 µM	56.7 µM	1.49 µM	15.3 µM	17.3 µM	36.9 µM	17.8 µM	33.6 µM	17.7 µM	41.4 µM	14.6 µM	31.1 µM
CC1=CC(=O)c2c(O)cccc2C1=O	–	2.29 µM	–	3.46 µM	–	13.2 µM	–	2.52 µM	–	0.621 µM	–	16.9 µM	–	3.47 µM	–	3.02 µM	–	3.24 µM	–	25 µM
COC(=O)C(CC(C)C)NC(=O)C(Cc1cnc[nH]1)NC(=O)CNC(=O)C(NC(=O)C(C)NC(=O)C(Cc1c[nH]c2ccccc12)NC(=O)C(CCC(=O)O)NC(=O)C(N)Cc1c(F)c(F)c(F)c(F)c1F)C(C)C (centres undefined) (H-[Phe(F5)]EWAVGHL-OMe; configuration not given here)	> 100 µM	> 100 µM	> 100 µM	> 100 µM	> 100 µM	> 100 µM	> 100 µM	> 100 µM	> 100 µM	> 100 µM	–	> 100 µM	> 100 µM	> 100 µM	–	> 12.5 µM	> 100 µM	> 100 µM	–	> 100 µM
